In patent publication US9931309B2, “Curcumin-sophorolipid complex” (COUNCIL OF SCIENTIFIC & INDUSTRIAL RESEARCH, priority 2014, dated 2018):

What was measured:
[1] = Appearance / solubilization of aqueous test solutions; type: physicochemical; settings: 100 μg/ml
Experimental: Optical properties of the present complex SL(A)+ curcumin complex were determined by UV-Vis and Photoluminescence studies analysis. Accordingly, the optical properties of SL(A), curcumin and the present sophorolipid-curcumin (SL(A)+Cur) self-assembly were compared. UV-Vis absorption spectra were recorded on Varian CARY 100 Bio UV-Vis spectrophotometer respectively, with 10 mm quartz cell at 25±0.1° C. For recording the spectra, 3 ml solutions of SL(A), Cur and SL(A)+Cur solution were prepared with having a concentration of 100 μg/ml. The solutions of this were mixed gently and subsequently the spectra were recorded.
Visible differences in the appearance of each of the test solutions were observed.

[2] = Zeta potential; type: physicochemical; settings: dispersions without any dilution
Experimental: The surface charges of the SL(A), Cur and SL(A)+Cur were determined using a zeta potential analyzer (Brookhaven Instruments Corporation, NY). The average zeta potentials of the nano self-assembly dispersions were determined without any dilution.

[3] = Dynamic Light Scattering (DLS) measurements, particle size; type: physicochemical; settings: 10 mg dissolved in 10 ml H2O
Experimental: The Dynamic Light Scattering (DLS) measurements were carried using the out on Brookhaven Instrument model 90 Plus Particle Size Analyzer. The solutions, i.e. Cur, SL(A) and the present SL(A)+Curcumin nano-assembly were analyzed at a constant shutter opening diameter in the DLS apparatus. […] This was also confirmed with the results obtained by SEM and TEM analysis depicted in FIG. 4. Field emission scanning electron microscopy images acquired on FEI QUANTA 200 microscope, equipped with a tungsten filament gun, operating at WD 10.6 mm and 20 kV. A 10 μL aliquot of all three sample solution were placed on silicon wafer and fixed on copper stubs with help of carbon tape. The samples were dried at room temperature for overnight and images were recorded without gold coating.

[4] = tested on: MCF-7 cells; assay: cells; type: cell-based
Experimental: (§1) All the experiments were performed in triplicates and repeated twice and the data has been presented as mean±SD. Statistical analysis was conducted with the Graph Pad 4 prism program using one-way ANOVA. The p values used for comparisons were <0.05. IC50 values were calculated using Kyplot software.
(§2) In order to determine whether acidic sophorolipid enhanced the bioavailability of Curcumin in cancerous cell lines, the cytotoxic potential of the aqueous SL(A)+Cur complex was tested in breast cancer lines MCF-7 and MDA-MB-231 and was compared with that of aqueous SL(A), Cur in water, and Cur dissolved in ethanol, the latter was used as a positive control.
(§3) Cyto-toxicity analysis of the present curcumin-SL(A) complex was performed using mammalian breast cancer cell lines by the MTT dye uptake assay. […] MTT solution (5 mg/ml) was added to each well and the cells were cultured for another 4 h at 37° C. in a 5% CO2 incubator. The formazan crystals formed were dissolved by addition of 90 μL of SDS-DMF (20% SDS in 50% DMF). After 15 min, the concentration of colored formazan derivative was determined by measuring optical density (OD) using the ELISA microplate reader (Biorad, Hercules, Calif.) at 570 nm (OD: 570-630 nm). The percentage viability was calculated as: % Viability=[OD of treated cells/OD of control cells]×100 Percentage Viability Observed Post Treatment

[5] = tested on: MDA-MB-231 cells; assay: MTT cytotoxicity assay in MDA-MB-231 cells; type: cell-based
Experimental: as §1, §2, §3

COc1cc(/C=C/C(=O)CC(=O)/C=C/c2ccc(O)c(OC)c2)ccc1O [Cur, diferuloylmethane]
appearance of the solution [1]: turbid
zeta potential [2]: −15.14 mV
hydrodynamic radius [3]: about 818 nm
hydrodynamic radius ([3]; listed as Curcumin): 818.6 nm
viability at 5 µg/mL ([4]; Homo sapiens, MCF7): 100%
viability at 10 µg/mL ([4]; Homo sapiens, MCF7): 100%
viability at 20 µg/mL ([4]; Homo sapiens, MCF7): 100%
viability at 40 µg/mL ([4]; Homo sapiens, MCF7): 95%
viability at 80 µg/mL ([4]; Homo sapiens, MCF7): 93%
viability at 120 µg/mL ([4]; Homo sapiens, MCF7): 91%
activity against the cancerous cell lines ([4]; MCF-7): no activity
concentration from which anticancer activity (growth inhibition) commences ([4]; MCF-7, FIG. 7(a), for the complex as concentration of Cur): 40 µg/mL
relative toxicity at low to moderate dose ([4]; MCF-7, low to moderate dose range (5-20 μg/ml)): more toxic
concentration at which cytotoxicity is exhibited [5]: 20000 ng/mL
activity against the cancerous cell lines ([5]; MDA-MB-231): no activity
% viability ([5]; MDAMB 231, 5 μg/ml): 100%
% viability ([5]; MDAMB 231, 10 μg/ml): 100%
% viability ([5]; MDAMB 231, 20 μg/ml): 100%
% viability ([5]; MDAMB 231, 40 μg/ml): 95%
% viability ([5]; MDAMB 231, 80 μg/ml): 93%
% viability ([5]; MDAMB 231, 120 μg/ml): 91%
